Test results as given in the supplement of paper PMC4862054.

How the values were obtained:
Details in all cases: incubation time: 72 h
[1] = test system: BT-549; assay: drug sensitivity score (DSS), CellTiter-Glo (DSS (AUC-based score)); higher = stronger drug effect (viability inhibition or cytotoxicity); extreme values may be limits of the assay
Summary of the method: (§1)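 Breast cancer cell lines were seeded in 20 µl suspension into 384-well plates already holding compound and incubated for 72 h. Each compound was tested at 5 concentrations in 10-fold steps across its own 10,000-fold range. Plates were normalised to 0.1 % DMSO and a positive kill control after CellTox Green and then CellTiter-Glo readings. The area under the fitted dose-response curve served as the basis for the drug sensitivity score.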

[2] = test system: MDA-MB-453; assay: as above
Summary of the method: as §1

[3] = test system: BT-474; assay: as above
Summary of the method: as §1

[4] = test system: MDA-MB-231; assay: as above
Summary of the method: as §1

[5] = test system: DU-4475; assay: as above
Summary of the method: as §1

[6] = test system: MCF-10A; assay: as above
Summary of the method: as §1

[7] = test system: HDQ-P1; assay: as above
Summary of the method: as §1

[8] = test system: HCC1599; assay: as above
Summary of the method: as §1

[9] = test system: CAL-120; assay: as above
Summary of the method: as §1

[10] = test system: Hs578T; assay: as above
Summary of the method: as §1

[11] = test system: HCC1143; assay: as above
Summary of the method: as §1

[12] = test system: MFM-223; assay: as above
Summary of the method: as §1

[13] = test system: MDA-MB-436; assay: as above
Summary of the method: as §1

[14] = test system: CAL-51; assay: as above
Summary of the method: as §1

[15] = test system: HCC1937; assay: as above
Summary of the method: as §1

[16] = test system: CAL-85-1; assay: as above
Summary of the method: as §1

[17] = test system: SK-BR-3; assay: as above
Summary of the method: as §1

[18] = test system: MDA-MB-468; assay: as above
Summary of the method: as §1

[19] = test system: DU-4475; assay: normalised response (% of control), CellTox Green; higher = less cell death (100 = DMSO, 0 = benzethonium chloride kill control)
Summary of the method: (§2)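 Normalised signals at single concentrations make up the values. They come from breast cancer cell lines seeded (20 µl suspension) into 384-well plates with compound at 5 concentrations in 10-fold steps over a compound-specific 10,000-fold range, incubated 72 h, and read for CellTox Green fluorescence then CellTiter-Glo luminescence. Each plate was normalised to 0.1 % DMSO (100) and a positive kill control (0).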

[20] = test system: HDQ-P1; assay: as above
Summary of the method: as §2

[21] = test system: HCC1143; assay: as above
Summary of the method: as §2

[22] = test system: MFM-223; assay: as above
Summary of the method: as §2

[23] = test system: MDA-MB-436; assay: as above
Summary of the method: as §2

[24] = test system: CAL-148; assay: as above
Summary of the method: as §2

[25] = test system: CAL-51; assay: as above
Summary of the method: as §2

[26] = test system: CAL-85-1; assay: as above
Summary of the method: as §2

[27] = test system: MDA-MB-468; assay: as above
Summary of the method: as §2

| Structure (SMILES) | drug sensitivity score [1] | drug sensitivity score [2] | drug sensitivity score [3] | drug sensitivity score [4] | drug sensitivity score [5] | drug sensitivity score [6] | drug sensitivity score [7] | drug sensitivity score [8] | drug sensitivity score [9] | drug sensitivity score [10] | drug sensitivity score [11] | drug sensitivity score [12] | drug sensitivity score [13] | drug sensitivity score [14] | drug sensitivity score [15] | drug sensitivity score [16] | drug sensitivity score [17] | drug sensitivity score [18] | normalised response [19] [%] | normalised response [20] [%] | normalised response [21] [%] | normalised response [22] [%] | normalised response [23] [%] | normalised response [24] [%] | normalised response [25] [%] | normalised response [26] [%] | normalised response [27] [%] |
| --- | --- | --- | --- | --- | --- | --- | --- | --- | --- | --- | --- | --- | --- | --- | --- | --- | --- | --- | --- | --- | --- | --- | --- | --- | --- | --- | --- |
| CCn1c(C(=O)N(C2CC2)C2CC2)cc2c3c(ncn3C)c(Nc3cc(C)n(C)n3)nc21 | 0 | 0 | 0 | 0 | 0 | 0 | 0 | 0 | 0 | 0 | 0 | 0 | 0 | 0 | 0 | 0 | 0 | 0.0233 | – | – | – | – | – | – | – | – | – |
| COc1ccc(S(=O)(=O)Nc2cccnc2Nc2ccc(O)cc2)cc1 [ABT-751] | 9.41 | 10.5 | 6.74 | 7.19 | 5.29 | 2.74 | 5.44 | 11.2 | 7.83 | 10.9 | 6.19 | 7.28 | 11.4 | 2.26 | 2.93 | 12.2 | 13.1 | 12 | – | – | – | – | – | – | – | – | – |
| CN[C@@H](C)C(=O)N[C@H]1CN(C(=O)CC(C)C)CC[C@H]2CC[C@@H](C(=O)NC(c3ccccc3)c3ccccc3)N2C1=O [AT-406] | 17.3 | 4.36 | 20.1 | 16 | 0 | 0 | 2.18 | 0 | 0 | 0 | 0 | 0 | 0 | 0 | 0 | 7.99 | 0 | 4.99 | – | – | – | – | – | – | – | – | – |
| Cc1cc(Nc2nc(N[C@@H](C)c3ncc(F)cn3)ncc2Cl)[nH]n1 [AZD1480] | 0 | 0 | 0 | 0 | 0 | 0 | 0 | 0 | 0 | 0 | 0 | 5.17 | 0 | 0 | 0 | 0 | 0 | 0 | – | – | – | – | – | – | – | – | – |
| CNC(=O)c1ccccc1Sc1ccc2c(/C=C/c3ccccn3)n[nH]c2c1 [Axitinib] | 1.06 | 0 | 0 | 0 | 0 | 0 | 1.23 | 2.21 | 1.6 | 0 | 0 | 8.4 | 1.91 | 9.31 | 0 | 0 | 0 | 4.94 | – | – | – | – | – | – | – | – | – |
| CC(O)(CS(=O)(=O)c1ccc(F)cc1)C(=O)Nc1ccc(C#N)c(C(F)(F)F)c1 (stereo not drawn) [Bicalutamide] | 0 | 0.186 | 0 | 0 | 0 | 0 | 0 | 0 | 0 | 0 | 0 | 0 | 0 | 0 | 0 | 0 | 0 | 0 | – | – | – | – | – | – | – | – | – |
| CCNC(=O)CCC/C=C\C[C@@H]1[C@@H](/C=C/[C@@H](O)CCc2ccccc2)[C@H](O)C[C@@H]1O [Bimatoprost] | 0 | 0 | 0 | 0 | 0 | 0 | 0 | 0 | 0 | 0 | 0 | 0 | 0 | 0 | 0 | 0 | 0 | 0 | – | – | – | – | – | – | – | – | – |
| COc1cc(Nc2c(C#N)cnc3cc(OCCCN4CCN(C)CC4)c(OC)cc23)c(Cl)cc1Cl [Bosutinib] | 4.99 | 5.47 | 6.85 | 8.52 | 0 | 15.1 | 11.3 | 5.58 | 5.53 | 0.947 | 3.67 | 4.34 | 7.31 | 7.53 | 7.57 | 9.16 | 5.72 | 8.1 | – | – | – | – | – | – | – | – | – |
| CCN(CC)CCCC(C)Nc1ccnc2cc(Cl)ccc12 (stereo not drawn) [Chloroquine] | 9.55 | 15.7 | 9.59 | 9.09 | 8.35 | 8.64 | 7.81 | 9.72 | 11.1 | 5.84 | 4.28 | 9.76 | 9.03 | 13.3 | 9.1 | 11 | 14.7 | 10.8 | – | – | – | – | – | – | – | – | – |
| CC1(COc2ccc3c(c2)ncn3-c2ccc3cccc(N4CCC(N)CC4)c3n2)COC1 [Crenolanib] | 7.22 | 3.06 | 4.44 | 4.35 | 4.23 | 3.64 | 3.33 | 0.696 | 0 | 4.07 | 0 | 0 | 4.37 | 6.45 | 0.864 | 4.49 | 4.21 | 3.61 | – | – | – | – | – | – | – | – | – |
| CC(C)(C)c1nc(-c2cccc(NS(=O)(=O)c3c(F)cccc3F)c2F)c(-c2ccnc(N)n2)s1 [Dabrafenib] | 0 | 0 | 0 | 0 | 19 | 0 | 0 | 0 | 8.71 | 0.389 | 0 | 0 | 0 | 0 | 0 | 0 | 0 | 0 | – | – | – | – | – | – | – | – | – |
| Cn1cc(C2=C(c3cn(C4CCN(Cc5ccccn5)CC4)c4ccccc34)C(=O)NC2=O)c2ccccc21 [Enzastaurin] | 0 | 0 | 0 | 0 | 0 | 0 | 0 | 0 | 0 | 0 | 0 | 0 | 0 | 0 | 0 | 0 | 0 | 0 | – | – | – | – | – | – | – | – | – |
| Cc1nc(C(=O)NCC(=O)O)c(O)c2ccc(Oc3ccccc3)cc12 [FG-4592] | 0 | 0 | 0 | 0 | 0 | 0 | 0 | 0 | 0 | 0 | 0 | 0 | 0 | 0 | 0 | 0 | 0 | 0 | – | – | – | – | – | – | – | – | – |
| CC(C)(C)NC(=O)[C@H]1CC[C@H]2[C@@H]3CC[C@H]4NC(=O)C=C[C@]4(C)[C@H]3CC[C@]12C [Finasteride] | 0 | 0 | 0 | 0 | 0 | 0 | 0 | 0 | 0 | 0 | 0 | 0 | 0 | 0 | 0 | 0 | 0 | 0 | – | – | – | – | – | – | – | – | – |
| CC1(C)CCC(c2ccc(Cl)cc2)=C(CN2CCN(c3ccc(C(=O)NS(=O)(=O)c4ccc(N[C@H](CCN5CCOCC5)CSc5ccccc5)c(S(=O)(=O)C(F)(F)F)c4)cc3)CC2)C1 [Navitoclax] (10000 nM) | – | – | – | – | – | – | – | – | – | – | – | – | – | – | – | – | – | – | 89.8 | -0.28 | 113 | 66.2 | 64.8 | 74.6 | 31.9 | 76.8 | 24.9 |
| Cc1cn(-c2cc(NC(=O)c3ccc(C)c(Nc4nccc(-c5cccnc5)n4)c3)cc(C(F)(F)F)c2)cn1 [Nilotinib] (1000 nM) | – | – | – | – | – | – | – | – | – | – | – | – | – | – | – | – | – | – | 101 | 79.2 | 91.8 | 103 | 82.2 | 106 | 86.3 | 101 | 111 |
| Cc1cn(-c2cc(NC(=O)c3ccc(C)c(Nc4nccc(-c5cccnc5)n4)c3)cc(C(F)(F)F)c2)cn1 [Nilotinib] (10000 nM) | – | – | – | – | – | – | – | – | – | – | – | – | – | – | – | – | – | – | 103 | 108 | 104 | 104 | 108 | 98.3 | 92.6 | 88.6 | 117 |
| O=C(CCCCCCC(=O)Nc1ccccc1)NO [Vorinostat] (10000 nM) | – | – | – | – | – | – | – | – | – | – | – | – | – | – | – | – | – | – | 76 | 103 | 42.1 | 80.3 | 77.5 | 45.5 | -6.76 | 51.7 | 25.7 |
